Measured values: patent US20260193294A1, “POLYPEPTIDE INHIBITOR, AND PREPARATION METHOD THEREFOR AND USE THEREOF” (SHANGHAI HANSOH BIOMEDICAL CO., LTD., priority 2022, published 2026)
Positions of bridges follow the written chain, without caps; N, C: chain ends. Non-standard residues stand in square brackets, D forms with d. Residues, ends and D or L forms follow the SMILES beside them. Trp(7-Me) = Cc1cccc2c(C[C@H](N)C(=O)O)c[nH]c12; 2Nal = N[C@@H](Cc1ccc2ccccc2c1)C(=O)O; Thp(SO2) = NC1(C(=O)O)CCS(=O)(=O)CC1; AEF = NCCOc1ccc(C[C@H](N)C(=O)O)cc1; Ac6c(4-thia) = NC1(C(=O)O)CCSCC1; 3Pal = N[C@@H](Cc1cccnc1)C(=O)O; Pen = CC(C)(S)[C@H](N)C(=O)O; Sar = CNCC(=O)O

Legend:
IL23R = biological target: T1, IL23R (Homo sapiens, UniProt Q5VWK5); experiment: Competing with IL23 for binding to IL23R (HTRF, IL23/IL23R binding assay kit); settings: 2 hours incubation at room temperature
T1 construct: Tag2 (identity not disclosed); purchased PerkinElmer 64BDPIL23PEH
T1 sequence (Q5VWK5 24-355 limits assumed): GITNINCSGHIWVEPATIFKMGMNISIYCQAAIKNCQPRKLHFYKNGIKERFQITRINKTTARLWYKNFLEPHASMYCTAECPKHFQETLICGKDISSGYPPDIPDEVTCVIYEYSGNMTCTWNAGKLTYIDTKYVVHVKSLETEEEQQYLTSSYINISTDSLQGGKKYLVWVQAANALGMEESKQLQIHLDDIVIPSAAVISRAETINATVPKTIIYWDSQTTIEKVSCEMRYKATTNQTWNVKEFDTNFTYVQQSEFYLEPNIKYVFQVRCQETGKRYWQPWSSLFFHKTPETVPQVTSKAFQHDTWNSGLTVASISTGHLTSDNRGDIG
Procedure: (§1) The compounds of the present disclosure were screened in IL23/IL23R BINDING ASSAY KITS (PerkinElmer Cat #64BDPIL23PEH). The screening of the compounds of the present disclosure was carried out by using a multi-well plate (suitable for HTRF determination). Generally, 2 μl of several compounds of the present disclosure and STANDARD SOLUTIONS in KIT were first respectively added to the wells of the multi-well plate. 4 μl of Tag1-IL23, 4 μl of Tag2-IL23R, and 10 μL of pre-mixed Anti-Tag1 Eu Cryptate Antibody and Anti-Tag2 d2 reagent were necessarily added to all the wells. The multi-well plate was protected from light by an opaque cover membrane, and the opaque cover membrane was then removed
as §1, with “removed after 2 hours of incubation at room temperature. The signal value was read by an HTRF-compatible detection instrument to detect IC50 value.” for “removed”
(§2) The inhibition rate was calculated as follows: […]
By using log (inhibitor) vs. response—Variable slope (four parameters) in Graphpad, the data of HTRF experiment results were subjected to non-linear regression fitting to fit a curve and obtain the IC50 value.

[1] = test system: activation of STAT3 phosphorylation by hIL23 in DB cells; experiment: Blocking the activation of STAT3 phosphorylation by hIL23 in DB cells (p-STAT3 ELISA); format: cell-based, Human; settings: DB cells stimulated by rhIL-23 0.5 nM, half an hour; read-out: pStat3 IC50
Procedure: To determine the inhibitory activity of the compounds of the present disclosure on the activation of STAT3 phosphorylation by hIL23 in DB cells
The compounds produced above were added to DB (ATCC Cat #CRL-2289) cells to inhibit the signal transduction of rhIL-23 cytokine. The screening of compounds was carried out by a multi-well plate (suitable for ELISA assay). Generally, in the presence of some of the above compounds of the present disclosure, 6.25×10^6 cells/ml of DB cells were stimulated by rhIL-23 (0.5 nM, R&D SYSTEMS) in RPMI medium (Invitrogen) containing 10% of FBS, and after half an hour, lysis was carried out on ice using 50 μL of 2×lysis buffer (CST). The content of p-STAT3 in the lysate was determined by PathScan Phospho-Stat3 (Tyr705) Sandwich ELISA Kit (CST Cat #7300C), so as to calculate the activity of the compounds of the present disclosure in blocking rhIL23 signal transduction in DB cells.
as §2
By using log (inhibitor) vs. response—Variable slope (four parameters) in Graphpad, the data of ELISA experiment results were subjected to non-linear regression fitting to fit a curve and obtain the IC50 value.

Row | IC50 (IL23R) [nM] | IC50 [1] [nM] | Structure (SMILES)
1 | 1.09 | 0.0014 | CC(=O)NCCCC[C@@H]1NC(=O)[C@H](Cc2c[nH]c3c(C)cccc23)NC(=O)[C@H]([C@@H](C)O)NC(=O)[C@H](CC(N)=O)NC(=O)[C@@H](NC(C)=O)C(C)(C)SSC(C)(C)[C@@H](C(=O)N[C@@H](Cc2ccc(OCCN)cc2)C(=O)N[C@@H](Cc2ccc3ccccc3c2)C(=O)NC2(C(=O)N[C@@H](CCC(=O)O)C(=O)N[C@@H](CC(N)=O)C(=O)N[C@@H](Cc3cccnc3)C(=O)N(C)CC(N)=O)CCSCC2)NC1=O [Example 3-14] (Ac-[Pen]NT[Trp(7-Me)]K(Ac)[Pen][AEF][2Nal][Ac6c(4-thia)]EN[3Pal][Sar]-NH2; disulfide 1-6)
2 | 1.13 | – | CC(=O)NCCCC[C@@H]1NC(=O)[C@H](Cc2c[nH]c3c(C)cccc23)NC(=O)[C@H]([C@@H](C)O)NC(=O)[C@H](CC(N)=O)NC(=O)[C@@H](NC(C)=O)C(C)(C)SSC(C)(C)[C@@H](C(=O)N[C@@H](Cc2ccc(OCCN)cc2)C(=O)N[C@@H](Cc2ccc3ccccc3c2)C(=O)NC2(C(=O)N[C@@H](CCC(=O)O)C(=O)N[C@@H](CC(N)=O)C(=O)N[C@@H](Cc3cccnc3)C(=O)N(C)CCNC(=O)CCCCC[N+](C)(C)C)CCSCC2)NC1=O [Example 3-19]
3 | 1.11 | 0.0016 | CC(=O)NCCCC[C@@H]1NC(=O)[C@H](Cc2c[nH]c3c(C)cccc23)NC(=O)[C@H]([C@@H](C)O)NC(=O)[C@H](CC(N)=O)NC(=O)[C@@H](NC(C)=O)C(C)(C)SSC(C)(C)[C@@H](C(=O)N[C@@H](Cc2ccc(OCCN)cc2)C(=O)N[C@@H](Cc2ccc3ccccc3c2)C(=O)NC2(C(=O)N[C@@H](CCC(=O)O)C(=O)N[C@@H](CC(N)=O)C(=O)N[C@@H](Cc3cccnc3)C(=O)N(C)CC(N)=O)CCS(=O)(=O)CC2)NC1=O [Example 4-14] (Ac-[Pen]NT[Trp(7-Me)]K(Ac)[Pen][AEF][2Nal][Thp(SO2)]EN[3Pal][Sar]-NH2; disulfide 1-6)
4 | 1.18 | – | CC(=O)NCCCC[C@@H]1NC(=O)[C@H](Cc2c[nH]c3c(C)cccc23)NC(=O)[C@H]([C@@H](C)O)NC(=O)[C@H](CC(N)=O)NC(=O)[C@@H](NC(C)=O)C(C)(C)SSC(C)(C)[C@@H](C(=O)N[C@@H](Cc2ccc(OCCN)cc2)C(=O)N[C@@H](Cc2ccc3ccccc3c2)C(=O)NC2(C(=O)N[C@@H](CCC(=O)O)C(=O)N[C@@H](CC(N)=O)C(=O)N[C@@H](Cc3cccnc3)C(=O)N(C)CCNC(=O)CCCCC[N+](C)(C)C)CCS(=O)(=O)CC2)NC1=O [Example 4-19]

Second part, the compound before the results:

Row | Structure (SMILES) | IC50 (IL23R) [nM] | IC50 [1] [nM]
5 | CC(=O)NCCCC[C@@H]1NC(=O)[C@H](Cc2c[nH]c3c(C)cccc23)NC(=O)[C@H]([C@@H](C)O)NC(=O)[C@H](CC(N)=O)NC(=O)[C@@H](NC(C)=O)C(C)(C)SSC(C)(C)[C@@H](C(=O)N[C@@H](Cc2ccc(OCCN)cc2)C(=O)N[C@@H](Cc2ccc3ccccc3c2)C(=O)NC2(C(=O)N[C@@H](CCC(=O)O)C(=O)N[C@@H](CC(N)=O)C(=O)N[C@@H](Cc3ccncc3)C(=O)N(C)CC(N)=O)CCC(F)(F)CC2)NC1=O [Example 1-14] | 1.14 | –
6 | CC(=O)NCCCC[C@@H]1NC(=O)[C@H](Cc2c[nH]c3c(C)cccc23)NC(=O)[C@H]([C@@H](C)O)NC(=O)[C@H](CC(N)=O)NC(=O)[C@@H](NC(C)=O)C(C)(C)SSC(C)(C)[C@@H](C(=O)N[C@@H](Cc2ccc(OCCN)cc2)C(=O)N[C@@H](Cc2ccc3ccccc3c2)C(=O)NC2(C(=O)N[C@@H](CCC(=O)O)C(=O)N[C@@H](CC(N)=O)C(=O)N[C@@H](Cc3cccnc3)C(=O)N(C)CCNC(=O)CCCCC[N+](C)(C)C)CCC(F)(F)CC2)NC1=O [Example 1-19] | 1.35 | –
7 | CCCCCCC(=O)NCCCCCCCC(=O)NCC[N+](C)(C)CCOCCOCCC(=O)NCCN(C)C(=O)[C@H](Cc1cccnc1)NC(=O)[C@H](CC(N)=O)NC(=O)[C@H](CCC(=O)O)NC(=O)C1(NC(=O)[C@H](Cc2ccc3ccccc3c2)NC(=O)[C@H](Cc2ccc(OCCN)cc2)NC(=O)[C@H]2NC(=O)[C@H](CCCCNC(C)=O)NC(=O)[C@H](Cc3c[nH]c4c(C)cccc34)NC(=O)[C@H]([C@@H](C)O)NC(=O)[C@H](CC(N)=O)NC(=O)[C@@H](NC(C)=O)C(C)(C)SSC2(C)C)CCOCC1 [Example 2] | 0.23 | 0.01
8 | CC(=O)NCCCC[C@@H]1NC(=O)[C@H](Cc2c[nH]c3c(C)cccc23)NC(=O)[C@H]([C@@H](C)O)NC(=O)[C@H](CC(N)=O)NC(=O)[C@@H](NC(C)=O)C(C)(C)SSC(C)(C)[C@@H](C(=O)N[C@@H](Cc2ccc(OCCN)cc2)C(=O)N[C@@H](Cc2ccc3ccccc3c2)C(=O)NC2(C(=O)N[C@@H](CCC(=O)O)C(=O)N[C@@H](CC(N)=O)C(=O)N[C@@H](Cc3cccnc3)C(=O)N(C)CCNC(=O)CCOCCOCC[N+](C)(C)C)CCOCC2)NC1=O [Example 3] | 1.23 | –
9 | CC(=O)NCCCC[C@@H]1NC(=O)[C@H](Cc2c[nH]c3c(C)cccc23)NC(=O)[C@H]([C@@H](C)O)NC(=O)[C@H](CC(N)=O)NC(=O)[C@@H](NC(C)=O)C(C)(C)SSC(C)(C)[C@@H](C(=O)N[C@@H](Cc2ccc(OCCN)cc2)C(=O)N[C@@H](Cc2ccc3ccccc3c2)C(=O)NC2(C(=O)N[C@@H](CCC(=O)O)C(=O)N[C@@H](CC(N)=O)C(=O)N[C@@H](Cc3cccnc3)C(=O)N(C)CCNC(=O)COCCOCCNC(=O)COCCOCCNC(=O)CC[C@H](NC(=O)CCCCCCCCCCCCCCCCC(=O)O)C(=O)O)CCOCC2)NC1=O [Example 6] | 1.25 | –
10 | CC(=O)NCCCC[C@@H]1NC(=O)[C@H](Cc2c[nH]c3c(C)cccc23)NC(=O)[C@H]([C@@H](C)O)NC(=O)[C@H](CC(N)=O)NC(=O)[C@@H](NC(C)=O)C(C)(C)SSC(C)(C)[C@@H](C(=O)N[C@@H](Cc2ccc(OCCN)cc2)C(=O)N[C@@H](Cc2ccc3ccccc3c2)C(=O)NC2(C(=O)N[C@@H](CCC(=O)O)C(=O)N[C@@H](CC(N)=O)C(=O)N[C@@H](Cc3cccnc3)C(=O)N(C)CCNC(=O)CCCCC[N+](C)(C)C)CCOCC2)NC1=O [Example 12] | 1.14 | –
